# Reference: patent publication US8637499B2, “Benzoxazepines as inhibitors of PI3K/mTOR and methods of their use and manufacture” (Exelixis, Inc., priority 2009, dated 2014)
# Experiments:
# [1] = target: mTORC1 (mTOR/GbL/Raptor) (Homo sapiens, UniProt P42345); test: mTOR/GbL/Raptor (mTORC1) ELISA Assay; assay type: biochemical; conditions: 0.2 nM mTORC1, 10 μM ATP, 50 nM NHis-tagged 4E-BP1; phosphorylation of 4E-BP1; read-out: IC50
# Summary of the method: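 mTORC1 (0.2 nM) phosphorylated NHis-tagged 4E-BP1 (50 nM) with 10 μM ATP in 20 mM Hepes pH 7.2, 10 mM MnCl2, for 120 min at ambient temperature. Product was captured on Ni-chelate plates and detected with anti-phospho-4E-BP1 plus HRP secondary antibody by chemiluminescence.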
# [2] = target: PI3Kα (Homo sapiens, UniProt P42336); test: PI3K Biochemical Assays (ATP consumption, luciferase-luciferin chemiluminescence); conditions: PI3Kα 1.5 nM, ATP 1 μM, PIP2 10 μM; percent of ATP consumed
# PI3Kα, sequence (P42336 whole entry): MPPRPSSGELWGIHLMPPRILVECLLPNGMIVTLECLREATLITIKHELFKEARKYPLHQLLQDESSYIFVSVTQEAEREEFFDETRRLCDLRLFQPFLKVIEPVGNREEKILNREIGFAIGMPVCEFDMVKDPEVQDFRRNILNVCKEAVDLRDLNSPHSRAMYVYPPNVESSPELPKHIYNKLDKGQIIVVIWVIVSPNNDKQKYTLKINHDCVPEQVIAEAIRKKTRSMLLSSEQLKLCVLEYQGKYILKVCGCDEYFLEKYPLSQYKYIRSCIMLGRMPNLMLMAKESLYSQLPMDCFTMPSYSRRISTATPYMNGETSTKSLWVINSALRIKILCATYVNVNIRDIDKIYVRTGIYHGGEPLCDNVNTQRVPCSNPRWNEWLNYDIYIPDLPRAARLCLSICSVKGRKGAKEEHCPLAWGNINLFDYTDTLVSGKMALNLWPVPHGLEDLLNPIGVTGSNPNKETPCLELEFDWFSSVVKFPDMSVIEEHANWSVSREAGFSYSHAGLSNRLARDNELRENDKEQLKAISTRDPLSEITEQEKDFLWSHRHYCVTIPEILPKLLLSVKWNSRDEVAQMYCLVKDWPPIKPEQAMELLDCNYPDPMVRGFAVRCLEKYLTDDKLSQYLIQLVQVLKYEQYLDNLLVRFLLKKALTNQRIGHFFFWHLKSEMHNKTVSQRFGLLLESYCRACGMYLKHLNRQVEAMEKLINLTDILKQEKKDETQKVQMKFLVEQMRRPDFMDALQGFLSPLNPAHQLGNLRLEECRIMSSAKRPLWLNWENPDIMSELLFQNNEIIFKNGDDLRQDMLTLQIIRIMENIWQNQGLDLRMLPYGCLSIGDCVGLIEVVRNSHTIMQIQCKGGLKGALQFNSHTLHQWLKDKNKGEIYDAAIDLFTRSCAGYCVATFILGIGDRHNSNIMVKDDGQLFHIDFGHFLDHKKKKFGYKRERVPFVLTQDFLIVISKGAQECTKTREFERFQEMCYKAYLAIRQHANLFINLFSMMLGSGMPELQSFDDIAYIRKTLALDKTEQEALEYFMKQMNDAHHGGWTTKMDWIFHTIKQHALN
# PI3Kα, sequence (P27986 whole entry partner): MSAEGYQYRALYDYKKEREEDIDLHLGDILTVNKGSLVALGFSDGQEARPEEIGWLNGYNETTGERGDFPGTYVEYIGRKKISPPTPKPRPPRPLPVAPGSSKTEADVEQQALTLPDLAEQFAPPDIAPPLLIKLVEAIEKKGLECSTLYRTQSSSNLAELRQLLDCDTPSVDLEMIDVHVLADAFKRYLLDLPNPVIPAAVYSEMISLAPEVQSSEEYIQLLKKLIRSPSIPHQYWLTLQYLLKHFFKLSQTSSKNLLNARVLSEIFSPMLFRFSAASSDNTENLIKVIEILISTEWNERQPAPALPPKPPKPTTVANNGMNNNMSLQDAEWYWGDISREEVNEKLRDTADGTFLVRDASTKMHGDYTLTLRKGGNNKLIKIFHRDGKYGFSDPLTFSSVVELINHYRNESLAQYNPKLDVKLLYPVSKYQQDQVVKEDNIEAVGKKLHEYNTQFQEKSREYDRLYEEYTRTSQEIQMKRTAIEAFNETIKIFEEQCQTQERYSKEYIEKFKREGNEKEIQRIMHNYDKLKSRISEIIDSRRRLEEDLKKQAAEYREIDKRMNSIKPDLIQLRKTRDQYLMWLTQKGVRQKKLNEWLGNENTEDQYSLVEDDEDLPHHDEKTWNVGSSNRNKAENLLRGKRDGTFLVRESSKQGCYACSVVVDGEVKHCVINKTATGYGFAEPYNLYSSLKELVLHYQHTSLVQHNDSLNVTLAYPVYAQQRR
# Summary of the method: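 Kinase activity read as percent ATP consumed via luciferase-luciferin chemiluminescence. 1.5 nM enzyme, 1 μM ATP, 10 μM PIP2 in 50 mM Tris pH 7.5, 1 mM EGTA, 10 mM MgCl2, 1 mM DTT, 0.03% CHAPS; ~2 h at ambient temperature, ATP consumption kept to 40-60%.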
Structure (SMILES),IC50 [1],IC50 [2]
"Cc1nc2ccc(-c3ccc4c(c3)CN(C(=O)N3CCCCC3)CCO4)cc2[nH]1 [Compound 86, 7-(2-methyl-1H-benzimidazol-6-yl)-4-(piperidin-1-ylcarbonyl)-2,3,4,5-tetrahydro-1,4-benzoxazepine]",250 to 700 nM,200 to 500 nM
"COC(=O)Nc1nc2ccc(-c3ccc4c(c3)CN(C(=O)N3CCC(=O)CC3c3ccc(F)cc3)CCO4)cc2[nH]1 (stereo not shown) [Compound 14, methyl [6-(4-{[2-(4-fluorophenyl)-4-oxopiperidin-1-yl]carbonyl}-2,3,4,5-tetrahydro-1,4-benzoxazepin-7-yl)-1H-benzimidazol-2-yl]carbamate]",50 to 250 nM,≤ 75 nM
"Cc1nc2ccc(-c3ccc4c(c3)CN(C(=O)N3CCC(c5ccccc5)CC3)CCO4)cc2[nH]1 [Compound 170, 7-(2-methyl-1H-benzimidazol-6-yl)-4-[(4-phenylpiperidin-1-yl)carbonyl]-2,3,4,5-tetrahydro-1,4-benzoxazepine]",50 to 250 nM,1000 to 3000 nM
"Cc1nc2ccc(-c3ccc4c(c3)CN(C(=O)N3CC=C(c5ccccc5)CC3)CCO4)cc2[nH]1 [Compound 157, 7-(2-methyl-1H-benzimidazol-6-yl)-4-[(4-phenyl-3,6-dihydropyridin-1(2H)-yl)carbonyl]-2,3,4,5-tetrahydro-1,4-benzoxazepine]",50 to 250 nM,200 to 500 nM
"COC(=O)Nc1nc2ncc(-c3ccc4c(c3)CN(C(=O)N3CCC(=O)CC3c3ccc(F)cc3)CCO4)cc2[nH]1 (stereo not shown) [Compound 37, methyl [6-(4-{[2-(4-fluorophenyl)-4-oxopiperidin-1-yl]carbonyl}-2,3,4,5-tetrahydro-1,4-benzoxazepin-7-yl)-1H-imidazo[4,5-b]pyridin-2-yl]carbamate]",50 to 250 nM,≤ 75 nM
"O=C(N1CCOc2ccc(-c3cnc4nc[nH]c4c3)cc2C1)N1[C@@H]2CC[C@H]1C[C@](O)(C(F)(F)F)C2 [Compound 178, 8-{[7-(1H-imidazo[4,5-b]pyridin-6-yl)-2,3-dihydro-1,4-benzoxazepin-4(5H)-yl]carbonyl}-3-(trifluoromethyl)-8-azabicyclo[3.2.1]octan-3-(endo)-ol]",50 to 250 nM,200 to 500 nM
"Cc1nc2ccc(-c3ccc4c(c3)CN(C(=O)N3CCC(=O)CC3c3ccc(F)c(F)c3)CCO4)cc2[nH]1 (stereo not shown) [Compound 121, 2-(3,4-difluorophenyl)-1-{[7-(2-methyl-1H-benzimidazol-6-yl)-2,3-dihydro-1,4-benzoxazepin-4(5H)-yl]carbonyl}piperidin-4-one]",50 to 250 nM,75 to 200 nM
"Cc1nc2ccc(-c3ccc4c(c3)CN(C(=O)N3CCCC(Cc5ccccc5)C3)CCO4)cc2[nH]1 (stereo not shown) [Compound 106, 7-(2-methyl-1H-benzimidazol-6-yl)-4-{[3-(phenylmethyl)piperidin-1-yl]carbonyl}-2,3,4,5-tetrahydro-1,4-benzoxazepine]",250 to 700 nM,1000 to 3000 nM
"COC(=O)Nc1nc2ccc(-c3ccc4c(c3)CN(C(=O)N3CCC(C#N)CC3)CCO4)cc2[nH]1 [Compound 21, methyl (6-{4-[(4-cyanopiperidin-1-yl)carbonyl]-2,3,4,5-tetrahydro-1,4-benzoxazepin-7-yl}-1H-benzimidazol-2-yl)carbamate]",50 to 250 nM,75 to 200 nM
"Cc1nc2ccc(-c3ccc4c(c3)CN(C(=O)N3CCC(=C(F)F)CC3)CCO4)cc2[nH]1 [Compound 137, 4-{[4-(difluoromethylidene)piperidin-1-yl]carbonyl}-7-(2-methyl-1H-benzimidazol-6-yl)-2,3,4,5-tetrahydro-1,4-benzoxazepine]",250 to 700 nM,200 to 500 nM
"Cc1nc2ccc(-c3ccc4c(c3)CN(C(=O)N(C)CCc3ccccc3)CCO4)cc2[nH]1 [Compound 93, N-methyl-7-(2-methyl-1H-benzimidazol-6-yl)-N-(2-phenylethyl)-2,3-dihydro-1,4-benzoxazepine-4(5H)-carboxamide]",700 to 2600 nM,1000 to 3000 nM
"Cc1nc2ccc(-c3ccc4c(c3)CN(C(=O)N3CCCCC3c3ccc(N(C)C)cc3)CCO4)cc2[nH]1 (stereo not shown) [Compound 131, N,N-dimethyl-4-(1-{[7-(2-methyl-1H-benzimidazol-6-yl)-2,3-dihydro-1,4-benzoxazepin-4(5H)-yl]carbonyl}piperidin-2-yl)aniline]",700 to 2600 nM,1000 to 3000 nM
"Cc1nc2ccc(-c3ccc4c(c3)CN(C(=O)N3CCC(c5noc(C)n5)CC3)CCO4)cc2[nH]1 [Compound 162, 7-(2-methyl-1H-benzimidazol-6-yl)-4-{[4-(5-methyl-1,2,4-oxadiazol-3-yl)piperidin-1-yl]carbonyl}-2,3,4,5-tetrahydro-1,4-benzoxazepine]",250 to 700 nM,1000 to 3000 nM
"Cc1nc2ccc(-c3ccc4c(c3)CN(C(=O)N3CCC(C)(O)CC3)CCO4)cc2[nH]1 [Compound 79, 4-methyl-1-{[7-(2-methyl-1H-benzimidazol-6-yl)-2,3-dihydro-1,4-benzoxazepin-4(5H)-yl]carbonyl}piperidin-4-ol]",50 to 250 nM,500 to 1000 nM
"O=C1CCN(C(=O)N2CCOc3ccc(-c4cnc5[nH]cnc5c4)cc3C2)C(c2cccc(F)c2)C1 (stereo not shown) [Compound 52, 2-(3-fluorophenyl)-1-{[7-(3H-imidazo[4,5-b]pyridin-6-yl)-2,3-dihydro-1,4-benzoxazepin-4(5H)-yl]carbonyl}piperidin-4-one]",50 to 250 nM,200 to 500 nM
"O=C1CCN(C(=O)N2CCOc3ccc(-c4ccc(-c5ncc[nH]5)cc4)cc3C2)[C@H](c2ccc(F)cc2)C1 [Compound 57, (2S)-2-(4-fluorophenyl)-1-({7-[4-(1H-imidazol-2-yl)phenyl]-2,3-dihydro-1,4-benzoxazepin-4(5H)-yl}carbonyl)piperidin-4-one]",≤ 50 nM,≤ 75 nM

# Results, then the compound that gave them:
IC50 [1],IC50 [2],Structure (SMILES)
≤ 50 nM,≤ 75 nM,"CC(F)(F)C1CCN(C(=O)N2CCOc3ccc(-c4cnc5nc(N)[nH]c5c4)cc3C2)CC1 [Compound 42, 6-(4-{[4-(1,1-difluoroethyl)piperidin-1-yl]carbonyl}-2,3,4,5-tetrahydro-1,4-benzoxazepin-7-yl)-1H-imidazo[4,5-b]pyridin-2-amine]"
≤ 50 nM,75 to 200 nM,"Nc1nc2ncc(-c3ccc4c(c3)CN(C(=O)N3CCC(C(F)F)CC3)CCO4)cc2[nH]1 [Compound 43, 6-(4-{[4-(difluoromethyl)piperidin-1-yl]carbonyl}-2,3,4,5-tetrahydro-1,4-benzoxazepin-7-yl)-1H-imidazo[4,5-b]pyridin-2-amine]"
≤ 50 nM,75 to 200 nM,"O=C(N1CCC(CF)CC1)N1CCOc2ccc(-c3ccc(-c4ncc[nH]4)cc3)cc2C1 [Compound 58, 4-{[4-(fluoromethyl)piperidin-1-yl]carbonyl}-7-[4-(1H-imidazol-2-yl)phenyl]-2,3,4,5-tetrahydro-1,4-benzoxazepine]"
≤ 50 nM,≤ 75 nM,"O=C1CCN(C(=O)N2CCOc3ccc(-c4ccc(-c5ncc[nH]5)cc4)cc3C2)C(c2cccc(F)c2)C1 (stereo not shown) [Compound 55, 2-(3-fluorophenyl)-1-({7-[4-(1H-imidazol-2-yl)phenyl]-2,3-dihydro-1,4-benzoxazepin-4(5H)-yl}carbonyl)piperidin-4-one]"
≤ 50 nM,75 to 200 nM,"Cc1nc2ccc(-c3ccc4c(c3)CN(C(=O)N3CCCCC3c3cc(F)c(F)c(F)c3)CCO4)cc2[nH]1 (stereo not shown) [Compound 129, 7-(2-methyl-1H-benzimidazol-6-yl)-4-{[2-(3,4,5-trifluorophenyl)piperidin-1-yl]carbonyl}-2,3,4,5-tetrahydro-1,4-benzoxazepine]"
≤ 50 nM,75 to 200 nM,"Cc1nc2ccc(-c3ccc4c(c3)CN(C(=O)N(C)[C@H](C)c3ccccc3)CCO4)cc2[nH]1 [Compound 109, N-methyl-7-(2-methyl-1H-benzimidazol-6-yl)-N-[(1R)-1-phenylethyl]-2,3-dihydro-1,4-benzoxazepine-4(5H)-carboxamide]"
≤ 50 nM,≤ 75 nM,"Cc1nc2ccc(-c3ccc4c(c3)CN(C(=O)N3CCCCC3c3ccc(F)c(F)c3)CCO4)cc2[nH]1 (stereo not shown) [Compound 114, 4-{[2-(3,4-difluorophenyl)piperidin-1-yl]carbonyl}-7-(2-methyl-1H-benzimidazol-6-yl)-2,3,4,5-tetrahydro-1,4-benzoxazepine]"
≤ 50 nM,≤ 75 nM,"Nc1nc2ncc(-c3ccc4c(c3)CN(C(=O)N3[C@@H]5CC[C@H]3C[C@](O)(C(F)(F)F)C5)CCO4)cc2[nH]1 [Compound 49, 8-{[7-(2-amino-1H-imidazo[4,5-b]pyridin-6-yl)-2,3-dihydro-1,4-benzoxazepin-4(5H)-yl]carbonyl}-3-(trifluoromethyl)-8-azabicyclo[3.2.1]octan-3-(endo)-ol]"
≤ 50 nM,75 to 200 nM,"Cc1nc2ccc(-c3ccc4c(c3)CN(C(=O)N3CCCCC3c3cc(F)cc(Cl)c3)CCO4)cc2[nH]1 (stereo not shown) [Compound 116, 4-{[2-(3-chloro-5-fluorophenyl)piperidin-1-yl]carbonyl}-7-(2-methyl-1H-benzimidazol-6-yl)-2,3,4,5-tetrahydro-1,4-benzoxazepine]"
≤ 50 nM,75 to 200 nM,"Nc1nc2ccc(-c3ccc4c(c3)CN(C(=O)N3CCC(=O)CC3c3cccc(F)c3)CCO4)cc2[nH]1 (stereo not shown) [Compound 28, 1-{[7-(2-amino-1H-benzimidazol-6-yl)-2,3-dihydro-1,4-benzoxazepin-4(5H)-yl]carbonyl}-2-(3-fluorophenyl)piperidin-4-one]"
